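Tested at 5 concentrations; 48 h exposure; 96-well plates; endpoints linearly interpolated, else capped at highest concentration. GI50 = concentration required for 50% inhibition of growth. TGI: total growth inhibition.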
Tests used:
Assay in all cases: inhibition of tumour cell growth, NCI panel, 48 h
NCI-H522 lung = test system: NCI-H522 lung
NCI/ADR-RES ovarian = test system: NCI/ADR-RES ovarian
HCT-15 colon = test system: HCT-15 colon
OVCAR-5 ovarian = test system: OVCAR-5 ovarian
CCRF-CEM leukemia = test system: CCRF-CEM leukemia
LOX IMVI melanoma = test system: LOX IMVI melanoma
SF-268 CNS = test system: SF-268 CNS
SW-620 colon = test system: SW-620 colon
KM12 colon = test system: KM12 colon
HCC-2998 colon = test system: HCC-2998 colon

| Structure (SMILES) | GI50 (NCI-H522 lung) | TGI (NCI-H522 lung) | GI50 (NCI/ADR-RES ovarian) | TGI (NCI/ADR-RES ovarian) | GI50 (HCT-15 colon) | TGI (HCT-15 colon) | GI50 (OVCAR-5 ovarian) | TGI (OVCAR-5 ovarian) | GI50 (CCRF-CEM leukemia) | TGI (CCRF-CEM leukemia) | GI50 (LOX IMVI melanoma) | TGI (LOX IMVI melanoma) | GI50 (SF-268 CNS) | TGI (SF-268 CNS) | GI50 (SW-620 colon) | TGI (SW-620 colon) | GI50 (KM12 colon) | TGI (KM12 colon) | GI50 (HCC-2998 colon) | TGI (HCC-2998 colon) |
| --- | --- | --- | --- | --- | --- | --- | --- | --- | --- | --- | --- | --- | --- | --- | --- | --- | --- | --- | --- | --- |
| COc1cc2c3c(n(CCCN4CCC(N)CC4)c(=O)c2cc1OC)-c1cc2c(cc1C3=O)OCO2 | 3.4 µM | 21.7 µM | 2.93 µM | 20.8 µM | 1.01 µM | 6.01 µM | 1.45 µM | 5.15 µM | 0.129 µM | 0.681 µM | 0.298 µM | 1.02 µM | 1.72 µM | 8.89 µM | 0.447 µM | 1.43 µM | 0.619 µM | 1.59 µM | 0.143 µM | 3.52 µM |
| Cc1ccc([N+](=O)[O-])c2c(NCCCN(C)C)ccnc12 | – | 55.8 µM | – | > 100 µM | – | > 100 µM | – | > 100 µM | – | > 100 µM | – | > 100 µM | – | > 100 µM | – | > 100 µM | – | > 100 µM | – | 45.5 µM |
| Cc1c(C(=O)NN)nnn1-c1ccnc2c(C(F)(F)F)cccc12 | > 100 µM | > 100 µM | > 100 µM | > 100 µM | > 100 µM | > 100 µM | > 100 µM | > 100 µM | > 100 µM | > 100 µM | > 100 µM | > 100 µM | > 100 µM | > 100 µM | > 100 µM | > 100 µM | > 100 µM | > 100 µM | > 100 µM | > 100 µM |
| NCCN1CCN(c2nccc(-c3ccc4ccccc4c3)n2)CC1 | 1.97 µM | 3.84 µM | 2.48 µM | 6.71 µM | 1.79 µM | 3.54 µM | 1.85 µM | 4.04 µM | 1.85 µM | 4.37 µM | 1.76 µM | 3.31 µM | 1.75 µM | 3.49 µM | 1.83 µM | 3.61 µM | 1.85 µM | 3.48 µM | 1.74 µM | 3.46 µM |
| C=C(C)[C@@H]1CC[C@@]2(C(=O)O)CC[C@]3(C)C(CCC4[C@@]5(C)CCC(OS(=O)(=O)c6ccccc6)C(C)(C)C5CC[C@]43C)C12 (stereo not given in full) | 2.36 µM | 13.2 µM | 3.52 µM | 18 µM | 2.93 µM | 19.9 µM | 9.44 µM | 28.7 µM | 5.28 µM | > 100 µM | 5.99 µM | 18.6 µM | 13.6 µM | 51.5 µM | 3.89 µM | 15.2 µM | 3.37 µM | 15 µM | 2.28 µM | 10.5 µM |
| O=C(N/N=C/c1ccc(Cl)cc1Cl)c1ccccc1Nc1cccc(C(F)(F)F)c1 | 3.34 µM | 20.7 µM | 5.97 µM | 36.7 µM | 30.5 µM | > 100 µM | 24.3 µM | > 100 µM | 3.51 µM | 19.3 µM | 7.26 µM | 63.7 µM | 3.38 µM | 13.3 µM | 8.63 µM | > 100 µM | 9.07 µM | > 100 µM | 8.52 µM | > 100 µM |
| FC(F)(F)c1ccc2c(Nc3cccc(C4CC(c5ccccc5)=NN4c4ccc(Cl)cc4)c3)ccnc2c1 (stereo not given) | 6.16 µM | 38.6 µM | 2.63 µM | 10.3 µM | 1.61 µM | 4.26 µM | 4.13 µM | 20.5 µM | 3.32 µM | 38.5 µM | 1.68 µM | 3.81 µM | 3.35 µM | 21.5 µM | 2.79 µM | 8.34 µM | 3.16 µM | 16.7 µM | 1.96 µM | 4.01 µM |
| COc1cc(-c2cn(C)c(=O)c(C)c2C)cc(OC)c1CN1CC[C@H](N2CCN(c3ccc(N[C@H]4CCC(=O)NC4=O)cc3F)CC2)C(F)(F)C1 | 8.09 µM | 24.1 µM | 12.9 µM | 30.5 µM | 10.7 µM | 24.1 µM | 15.8 µM | 31.5 µM | 19.4 µM | > 100 µM | 11.5 µM | 24.9 µM | 16.5 µM | 40.2 µM | 17.9 µM | 38 µM | 15.1 µM | 30.2 µM | 12.9 µM | 25.8 µM |
| Clc1ccc(OCc2nnc3n2N=C(c2ccc(Cl)cc2Cl)CS3)c(Cl)c1 | 14.5 µM | 37.6 µM | 27 µM | 91.6 µM | 12.7 µM | 33.2 µM | 31.4 µM | > 100 µM | 22.3 µM | 89.7 µM | 14.1 µM | 31 µM | 22.9 µM | 66.5 µM | 31.3 µM | > 100 µM | 25.5 µM | > 100 µM | 20.3 µM | 37.2 µM |
| CCn1c(-c2nonc2N)nc2ccc(F)cc21 | > 25 µM | > 25 µM | > 25 µM | > 25 µM | > 25 µM | > 25 µM | > 25 µM | > 25 µM | > 25 µM | > 25 µM | > 25 µM | > 25 µM | > 25 µM | > 25 µM | > 25 µM | > 25 µM | > 25 µM | > 25 µM | > 25 µM | > 25 µM |
| O=P(O)(O)C(O)(Cn1ccnc1)P(=O)(O)O | > 100 µM | > 100 µM | > 64.1 µM | > 100 µM | > 100 µM | > 100 µM | > 89.2 µM | > 100 µM | > 100 µM | > 100 µM | > 47 µM | > 100 µM | > 100 µM | > 100 µM | > 100 µM | > 100 µM | > 79.3 µM | > 100 µM | 98.2 µM | > 100 µM |
| CCCNCc1cc(C)cc2c1nc(N1CCNCC1)n2Cc1cc(C)c(F)c(C)c1 | 2.09 µM | 5.67 µM | 16.1 µM | 31 µM | 4.46 µM | 16.4 µM | 7.58 µM | 22.3 µM | 2.2 µM | 4.71 µM | 1.72 µM | 3.22 µM | 5.11 µM | 19.7 µM | 1.96 µM | 4.34 µM | 3.08 µM | 11.7 µM | 1.83 µM | 3.47 µM |

Reference: PubChem BioAssay (NCI)
